# Experimental data from ChEMBL document CHEMBL5370528, “Synthesis-accessibility-oriented design of c-Jun N-terminal kinase 1 inhibitor” (Eur J Med Chem, 2023).
# Calls of active or inactive are those of the source. The calls are words filed in the database; no cut-off is given here.
# What was measured:
# [1] = target: Mitogen-activated protein kinase 7 (Homo sapiens) (UniProt Q13164); assay: Inhibition of ERK5 (unknown origin) at 1 uM preincubated for 10 mins followed by substrate addition and measured after 60 mins in the presence of ATP by ADP-Glo reagent based luminescence assay relative to control; details: time 70.0 min
# Sequence of Mitogen-activated protein kinase 7 (Homo sapiens) (Q13164 2-816 limits assumed): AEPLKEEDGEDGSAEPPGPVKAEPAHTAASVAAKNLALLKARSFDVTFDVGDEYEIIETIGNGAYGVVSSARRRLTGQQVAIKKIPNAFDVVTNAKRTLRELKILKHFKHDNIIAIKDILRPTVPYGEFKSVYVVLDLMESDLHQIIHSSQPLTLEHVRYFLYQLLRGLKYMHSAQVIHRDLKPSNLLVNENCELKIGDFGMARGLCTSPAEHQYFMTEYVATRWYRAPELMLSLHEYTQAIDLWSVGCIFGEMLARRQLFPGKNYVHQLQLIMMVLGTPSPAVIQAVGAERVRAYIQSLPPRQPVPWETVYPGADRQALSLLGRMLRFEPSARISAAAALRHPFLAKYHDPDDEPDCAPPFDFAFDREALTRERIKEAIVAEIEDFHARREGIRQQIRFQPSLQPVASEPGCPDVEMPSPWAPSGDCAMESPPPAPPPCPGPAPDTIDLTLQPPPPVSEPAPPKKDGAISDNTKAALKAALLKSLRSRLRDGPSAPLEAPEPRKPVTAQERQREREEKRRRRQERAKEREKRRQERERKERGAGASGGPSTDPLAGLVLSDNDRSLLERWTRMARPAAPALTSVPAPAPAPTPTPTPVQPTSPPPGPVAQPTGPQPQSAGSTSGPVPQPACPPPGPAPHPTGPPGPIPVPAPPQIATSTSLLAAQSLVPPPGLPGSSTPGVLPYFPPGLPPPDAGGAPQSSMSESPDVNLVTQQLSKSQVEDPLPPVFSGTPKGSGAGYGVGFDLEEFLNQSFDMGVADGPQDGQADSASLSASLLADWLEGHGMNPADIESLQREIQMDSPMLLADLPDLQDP
# Mus musculus [2] = assay: Anti-fibrotic activity in bleomycin-induced C57BL/6 mouse model of pulmonary fibrosis assessed as protection against BLM-induced death at 75 mg/kg, po administered twice a day for 3 weeks relative to control; type: functional
# [3] = AUC(0 to infinity) in Sprague-Dawley rat at 5 mg/kg, iv by HPLC-UV analysis; type: ADME, organism-based; design: dose 5 mg/kg, route iv; details: in vivo
# Mus musculus [4] = assay: Anti-fibrotic activity in bleomycin-induced C57BL/6 mouse model of pulmonary fibrosis assessed as alleviation of alveolar wall thickening in lungs at 25 to 75 mg/kg, po administered twice a day for 3 weeks by H&E staining based analysis; type: functional, organism-based; details: dose 25-75 mg/kg
# [5] = target: T1, Mitogen-activated protein kinase 8 (Homo sapiens, UniProt P45983); assay: Inhibition of N-terminal GST-tagged recombinant full length human JNK1 expressed in baculovirus infected Sf9 insect cells using IPTTPITTTYFFFKKK as substrate incubated for 60 mins in the presence of ATP by ADP-Glo reagent based luminescence assay
# T1 sequence (P45983 whole entry): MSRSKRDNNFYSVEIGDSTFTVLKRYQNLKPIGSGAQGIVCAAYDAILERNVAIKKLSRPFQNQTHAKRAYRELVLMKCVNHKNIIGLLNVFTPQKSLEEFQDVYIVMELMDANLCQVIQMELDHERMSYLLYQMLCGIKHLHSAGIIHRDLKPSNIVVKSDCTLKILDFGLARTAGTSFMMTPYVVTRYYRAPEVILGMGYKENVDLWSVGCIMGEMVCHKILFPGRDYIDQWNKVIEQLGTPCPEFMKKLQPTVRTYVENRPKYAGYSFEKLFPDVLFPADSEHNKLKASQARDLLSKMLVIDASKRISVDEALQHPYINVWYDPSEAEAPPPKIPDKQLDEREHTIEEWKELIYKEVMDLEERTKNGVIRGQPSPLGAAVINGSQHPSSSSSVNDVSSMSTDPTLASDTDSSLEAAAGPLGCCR
# [6] = target: T2, Dual specificity mitogen-activated protein kinase kinase 7 (Homo sapiens) (UniProt O14733); assay: Inhibition of MAP2K7 (unknown origin) at 1 uM preincubated for 10 mins followed by substrate addition and measured after 60 mins in the presence of ATP by ADP-Glo reagent based luminescence assay relative to control; details: time 70.0 min
# T2 sequence (whole entry): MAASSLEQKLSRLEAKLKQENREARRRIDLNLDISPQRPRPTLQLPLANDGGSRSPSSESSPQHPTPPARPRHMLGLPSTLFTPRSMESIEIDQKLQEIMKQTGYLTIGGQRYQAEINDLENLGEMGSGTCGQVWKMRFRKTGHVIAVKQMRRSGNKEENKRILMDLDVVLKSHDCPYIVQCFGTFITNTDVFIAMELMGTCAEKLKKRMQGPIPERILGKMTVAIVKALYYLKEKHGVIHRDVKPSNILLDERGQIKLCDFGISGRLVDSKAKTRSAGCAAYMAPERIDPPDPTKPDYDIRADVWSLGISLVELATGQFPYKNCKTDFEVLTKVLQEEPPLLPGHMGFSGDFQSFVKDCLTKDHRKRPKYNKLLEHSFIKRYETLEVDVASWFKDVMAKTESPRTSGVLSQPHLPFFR
# Mus musculus [7] = assay: Anti-fibrotic activity in bleomycin-induced C57BL/6 mouse model of pulmonary fibrosis assessed as increase in respiratory function by measuring expiratory volume at 25 to 75 mg/kg, po administered twice a day for 3 weeks by spirometry analysis; type: functional, organism-based; details: dose 25-75 mg/kg
# [8] = AUC (0 to infinity) in Sprague-Dawley rat at 75 mg/kg, po by HPLC-UV analysis; type: ADME, organism-based; design: dose 75 mg/kg, route po; details: in vivo
# Mus musculus [9] = assay: Anti-fibrotic activity in bleomycin-induced C57BL/6 mouse model of pulmonary fibrosis assessed as increase in respiratory function by measuring tidal volume at 25 to 75 mg/kg, po administered twice a day for 3 weeks by spirometry analysis; type: functional, organism-based; details: dose 25-75 mg/kg
# [10] = target: CDK6/cyclin D1 (Homo sapiens) (UniProt P24385+Q00534); assay: Inhibition of CDK6/Cyclin D1 (unknown origin) at 1 uM preincubated for 10 mins followed by substrate addition and measured after 60 mins in the presence of ATP by ADP-Glo reagent based luminescence assay; type: protein-complex assay; details: time 70.0 min
# [11] = target: T1, Mitogen-activated protein kinase 8; assay: Inhibition of N-terminal GST-tagged recombinant full length human JNK1 expressed in baculovirus infected Sf9 insect cells using IPTTPITTTYFFFKKK as substrate at 0.1 uM incubated for 60 mins in the presence of ATP by ADP-Glo reagent based luminescence assay relative to control
# [12] = Oral bioavailability in Sprague-Dawley rat at 75 mg/kg by HPLC-UV analysis; type: ADME, organism-based; details: in vivo
# [13] = target: Mitogen-activated protein kinase 9 (Homo sapiens, UniProt P45984); assay: Inhibition of N-terminal GST-tagged recombinant full length human JNK2 expressed in baculovirus infected Sf9 cells using IPTTPITTTYFFFKKK as substrate incubated for 60 mins in the presence of ATP by ADP-Glo reagent based luminescence assay
# Sequence of Mitogen-activated protein kinase 9 (P45984 whole entry): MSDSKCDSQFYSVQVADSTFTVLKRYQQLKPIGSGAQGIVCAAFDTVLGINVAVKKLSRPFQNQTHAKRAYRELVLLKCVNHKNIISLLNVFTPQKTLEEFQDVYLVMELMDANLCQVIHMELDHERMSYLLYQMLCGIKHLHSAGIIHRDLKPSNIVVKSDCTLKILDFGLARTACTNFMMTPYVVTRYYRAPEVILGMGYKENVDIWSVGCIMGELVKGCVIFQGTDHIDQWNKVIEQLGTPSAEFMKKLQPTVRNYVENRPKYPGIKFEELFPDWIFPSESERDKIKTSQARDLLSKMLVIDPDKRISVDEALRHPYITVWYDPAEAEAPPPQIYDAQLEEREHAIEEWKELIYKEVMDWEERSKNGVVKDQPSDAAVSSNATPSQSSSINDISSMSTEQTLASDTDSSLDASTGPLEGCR
# Mus musculus [14] = assay: Anti-fibrotic activity in bleomycin-induced C57BL/6 mouse model of pulmonary fibrosis assessed as increase in respiratory function by measuring minute volume at 25 to 75 mg/kg, po administered twice a day for 3 weeks by spirometry analysis; type: functional, organism-based; details: dose 25-75 mg/kg
# [15] = Half-life in Sprague-Dawley rat at 75 mg/kg, po by HPLC-UV analysis; type: ADME, organism-based; details: in vivo
# [16] = MRT(0 to infinity) in Sprague-Dawley rat at 5 mg/kg, iv by HPLC-UV analysis; type: ADME, organism-based; details: in vivo
# Mus musculus [17] = assay: Anti-fibrotic activity in bleomycin-induced C57BL/6 mouse model of pulmonary fibrosis assessed as reduction in alveolar space collapse at 25 to 75 mg/kg, po administered twice a day for 3 weeks by Masson's trichome staining based analysis; type: functional, organism-based; details: dose 25-75 mg/kg
# Mus musculus [18] = assay: Anti-fibrotic activity in bleomycin-induced C57BL/6 mouse model of pulmonary fibrosis assessed as reduction in collagen accumulation at 25 to 75 mg/kg, po administered twice a day for 3 weeks by Masson's trichome staining based analysis; type: functional, organism-based; details: dose 25-75 mg/kg
# [19] = Tmax in Sprague-Dawley rat at 75 mg/kg, po by HPLC-UV analysis; type: ADME, organism-based; details: in vivo
# [20] = target: c-Jun N-terminal kinase, JNK (Homo sapiens) (UniProt P45983+P53779+P45984); assay: Inhibition of JNK in HFL1 cells assessed as inhibition of anisomycin-activated c-Jun phosphorylation preincubated for 1 hrs followed by anisomycin activation for 1 hrs by Western blot analysis; type: cell-based; details: dose 2-50 µM, time 2.0 hrs
# [21] = Clearance in Sprague-Dawley rat at 5 mg/kg, iv by HPLC-UV analysis; type: ADME, organism-based; details: in vivo
# [22] = Cmax in Sprague-Dawley rat at 75 mg/kg, po by HPLC-UV analysis; type: ADME, organism-based; design: dose 75 mg/kg, route po; details: in vivo
# Mus musculus [23] = assay: Anti-fibrotic activity in bleomycin-induced C57BL/6 mouse model of pulmonary fibrosis assessed as alleviation of body weight loss at 25 to 75 mg/kg, po administered twice a day for 3 weeks; type: functional, organism-based; details: dose 25-75 mg/kg
# [24] = Apparent volume of distribution in Sprague-Dawley rat at 75 mg/kg, po by HPLC-UV analysis; type: ADME, organism-based; details: in vivo
# [25] = MRT (0 to infinity) in Sprague-Dawley rat at 75 mg/kg, po by HPLC-UV analysis; type: ADME, organism-based; details: in vivo
# [26] = Cmax in Sprague-Dawley rat at 5 mg/kg, iv by HPLC-UV analysis; type: ADME, organism-based; design: dose 5 mg/kg, route iv; details: in vivo
# [27] = target: Mitogen-activated protein kinase 3 (Homo sapiens) (UniProt P27361); assay: Inhibition of ERK1 (unknown origin) at 1 uM preincubated for 10 mins followed by substrate addition and measured after 60 mins in the presence of ATP by ADP-Glo reagent based luminescence assay relative to control; details: time 70.0 min
# Sequence of Mitogen-activated protein kinase 3 (Homo sapiens) (P27361 whole entry): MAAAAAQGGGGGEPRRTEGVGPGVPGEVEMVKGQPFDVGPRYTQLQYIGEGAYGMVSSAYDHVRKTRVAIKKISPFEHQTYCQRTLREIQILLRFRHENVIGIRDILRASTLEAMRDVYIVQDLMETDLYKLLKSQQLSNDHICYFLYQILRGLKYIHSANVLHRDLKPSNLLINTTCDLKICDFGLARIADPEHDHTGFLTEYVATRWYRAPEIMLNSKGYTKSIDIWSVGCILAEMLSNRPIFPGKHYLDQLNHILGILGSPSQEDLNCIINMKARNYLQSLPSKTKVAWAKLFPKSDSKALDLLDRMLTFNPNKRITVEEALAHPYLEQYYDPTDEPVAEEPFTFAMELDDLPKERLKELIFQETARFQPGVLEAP
# [28] = target: Mitogen-activated protein kinase 11 (Homo sapiens) (UniProt Q15759); assay: Inhibition of p38beta (unknown origin) at 1 uM preincubated for 10 mins followed by substrate addition and measured after 60 mins in the presence of ATP by ADP-Glo reagent based luminescence assay relative to control; details: time 70.0 min
# Sequence of Mitogen-activated protein kinase 11 (Homo sapiens) (Q15759 whole entry): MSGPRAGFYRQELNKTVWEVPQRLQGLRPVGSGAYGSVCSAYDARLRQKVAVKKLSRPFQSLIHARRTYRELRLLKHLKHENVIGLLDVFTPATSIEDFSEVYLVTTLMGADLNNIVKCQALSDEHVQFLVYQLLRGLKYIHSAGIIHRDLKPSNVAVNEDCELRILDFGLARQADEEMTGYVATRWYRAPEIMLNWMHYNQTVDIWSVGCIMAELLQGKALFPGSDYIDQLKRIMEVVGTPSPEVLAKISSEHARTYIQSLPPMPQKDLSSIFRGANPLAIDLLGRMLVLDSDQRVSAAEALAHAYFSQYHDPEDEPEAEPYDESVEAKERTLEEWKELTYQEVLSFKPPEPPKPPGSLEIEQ
smiles,measurement,setting,value
CC(C)(C)CNc1ncc(Br)c(Nc2ccccc2C(N)=O)n1,inhibition,[1],13.5%
same,Activity,Mus musculus [2],100%
same,AUC(0-inf),[3],868 ng·h/mL
same,Activity,Mus musculus [4],Active
same,IC50,[5],0.0335 µM
same,inhibition,[6],8.7%
same,Activity,Mus musculus [7],Active
same,AUC(0-inf),[8],1700 ng·h/mL
same,Activity,Mus musculus [9],Active
same,inhibition,[10],17%
same,inhibition,[11],71.1%
same,bioavailability,[12],15.3%
same,IC50,[13],0.113 µM
same,Activity,Mus musculus [14],Active
same,half-life,[15],4.22 h
same,MRT inf,[16],2.85 h
same,Activity,Mus musculus [17],Active
same,Activity,Mus musculus [18],Active
same,Tmax,[19],1.38 h
same,inhibition,[20],Dose-Dependent Effect
same,clearance,[21],131 mL/min/kg
same,Cmax,[22],488 ng/mL
same,Activity,Mus musculus [23],Active
same,Vz,[24],230.54 L/kg
same,MRT inf,[25],5.45 h
same,Cmax,[26],453 ng/mL
same,inhibition,[27],25.9%
same,inhibition,[28],9.6%
